Values of other authors as cited in patent US12453819B2, “Injector” (Antares Pharma, Inc., priority 2018, dated 2025).
Structures can show the parent of a compound that is named as a salt.

Row | SMILES | solubility in water: parts of water dissolving one part (as described in USP (soluble)) | solubility in alcohol (descriptive term) | solubility in chloroform (descriptive term) | solubility in ether (descriptive term) | solubility in water (descriptive term) | log P
1 | C=CCN1CC[C@]23c4c5ccc(O)c4O[C@H]2C(=O)CC[C@@]3(O)[C@H]1C5 [Naloxone hydrochloride] | 10-30 parts of water | slightly soluble | practically insoluble | practically insoluble | soluble | –
2 | C=CCN1CC[C@]23c4c5ccc(O)c4O[C@H]2C(=O)CC[C@@]3(O)[C@H]1C5 [Naloxone, 17-allyl-4,5α-epoxy, 3-14-dihydroxymorphine-6-one] | – | – | – | – | – | 1.92
